Data published in patent US20120071539A1, “COMPOUNDS AND METHODS FOR MODULATING THE SILENCING OF A POLYNUCLEOTIDE OF INTEREST” (Emory University, priority 2006, published 2012).
Where “and” joins values, the source holds several entries; their conditions need not be identical. Equal values may be shown once. Entries after “also recorded” stand apart in the source; their conditions may differ.

Key:
tumor cell models = details: cited from earlier work
bladder cancer cells = details: cited from earlier work
RNAi-293-EGFP/RFP cells = assay: dose-response of GFP/RFP signal ratio in RNAi-293-EGFP/RFP cells; format: cell-based; details: at 5 μM; 48 hours; versus Enoxacin 50 μM and 100 μM
Description: FIGS. 11A-11D show drug dose-responses for representative metal/Fe chelators. RNAi-293-EGFP/RFP cells were treated with each compound for 48 hours and the GFP/RFP signal ratio was plotted for relative RNAi-enhancing activity (%) using E50 (Enoxacin at 50 μM) as 100% activity.
An additional chemical library screen was performed to identify enhancers and suppressors of RNAi activity. In this screen, RNAi-293-EGFP cells were treated with compounds from a chemical library and endogenous RNAi activity was measured by GFP readout. Four particular compounds were identified in this screen. Further, all four compounds identified in this screen have metal/Fe chelating ability.
These four compounds were further tested by obtaining a drug dose-response curve for each compound at a wide range of concentrations in RNAi-293-EGFP/RFP. After 48 hours, GFP signals were measured by SpectraMax M2^e (Molecular Devices Corporation, Sunnyvale, Calif.). The GFP signals were then normalized over RFP signals to account for variability of cell numbers among wells and then plotted for relative RNAi-enhancing activity, which is set to 100% for a known RNAi-enhancing small molecule, e.g., Enoxacin at 50 μM.

miR-125a = assay: Lin28 3'-UTR luciferase reporter in cells expressing miR-125a; format: cell-based
Excerpt: Referring now to FIG. 8, the 3′-UTR of Lin28 mRNA, a target mRNA of miR-125a, was inserted into the 3′ end of luciferase reporter gene. Lin28-Del is the construct without the target sequence of miR-125a. Lin28 or Lin28-Del was transfected into cells expressing miR-125a. Although RNAi-E had no effect on Lin28-Del, the translation of Lin28 was suppressed by the expression of miR-125a.

[1] = test system: siRNA-mediated mRNA degradation; assay: cell-based reporter screen: human 293 cells stably expressing GFP plus siRNA hairpin against GFP; details: pilot screen of The Spectrum Collection; FIG. 3, FIG. 4
Description: FIG. 2 discloses one embodiment of the cell-based reporter system of the invention. In this example, a human 293-cell line stably expressing a reporter gene, GFP, was used. This cell line was further transfected with a construct that expresses siRNA hairpin against GFP, which can decrease the level of GFP expression. Individual clones were isolated with greatly (although not completely) reduced GFP expression.
Using the above-identified clones, a screen was performed using The Spectrum Collection (MicroSource Discovery Systems, Inc., Gaylordsville, Conn., United States of America), which contains 2000 biologically active and structurally diverse compounds from libraries of known drugs, experimental bioactives, and pure natural products. For example, in one embodiment, a pilot screen of this library identified one inhibitor and one enhancer of siRNA-mediated mRNA degradation.
To identify the chemical compounds that modulate the siRNA and miRNA pathway, a screening strategy was used. A human 293-cell line stably expressing a reporter gene, GFP, was used. This cell line was further transfected with a construct that expresses siRNA hairpin against GFP, which could knock down the expression of GFP. […] Using these clones, a screen was performed using The Spectrum Collection, which contains 2000 biologically active and structurally diverse compounds from libraries of known drugs, experimental bioactives, and pure natural products.
Human 293 cells stably expressing a reporter gene, GFP, were further transfected with a construct that expresses an siRNA hairpin against GFP, which results in the knock-down of the expression of GFP. Transfected cells containing the siRNA suppressed GPF expression were split and then treated with an effective amount of enoxacin (FIG. 4, second panel) and were grown for a period of 24-48 hours.

EGFP, 293-EGFP cells = assay: plate-reader chemical library screen, GFP signal in control EGFP cells; format: cell-based, human; details: GFP signal; 50 mM RNAi-E
Description: (§1) The presently disclosed chemical library also was screened using a plate reader to quantify the GFP signal intensity. The following screens were conducted: (1) repeating chemical screen using plate reader to quantify the GFP signal (50 mM each drug); (2) treating cells with 50 mM RNAi-I (30 mM each additional drug); and treating cells with […] (30 mM each additional drug).
(§2) For each screen, two types of cells were used: Clone#3 and EGFP. Clone#3 cells are 293-EGFP-siGFP and could be used to identify the modulators of the RNAi pathway. EGFP cells are 293-EGFP only and were used as a control to eliminate the compounds that could kill the cells or interfere GFP signals that are not related to RNAi pathway. The results for each screen are summarized in Table 2 and Table 3, respectively.
(§3) In these three screens, compounds were identified that could either enhance or inhibit RNAi activity in Clone#3, but had no effect on EGFP cells, which would indicate that these compounds might specifically work on RNAi pathway. The modulation of RNAi activity by these compounds was calculated as the percentage of GFP signal to Clone#3 control cells.

miR-30a-3p = assay: miRNA sensor Luc-T30 dual luciferase assay; format: cell-based; details: endogenously expressed miR-30; FIG. 6, FIG. 7
Excerpt: (A) Design of a siRNA duplex against miR-30a precursor (siRNA-p) and a control siRNA duplex (siRNA-c). The miR-30a precursor is provided as SEQ ID NO:1. The siRNA target region is represented by nucleotides 21-40 of SEQ ID NO:1. The siRNA-p is provided as SEQ ID NO:2 and the siRNA-c is provided as SEQ ID NO:3. The double stranded siRNA is shown on the bottom and predicted pairing between one siRNA strand (blue) and the precursor target (green).
In FIG. 6, top left panel, the blue arrowheads in Luc-T30 indicate artificial target sequence against miR-30a-3p. Luc-AT30 has an artificial sequence complementary to that in Luc-T30. […] Relative luciferase activity was calculated by dividing the reporter (Firefly) luciferase activity with co-transfected Renilla luciferase activity. Luciferase activity was decreased by transfecting Luc-T30 in HepG2 (orange bars) without changes in the amount of its mRNA (blue bars). Error bars represent the standard deviation (SD) of three triplicate experiments. […] Error bars represent the standard deviation (SD) from three triplicate experiments. **P=0.004; *****P=0.00001.
This reporter contains the target sequence of miR-30. In the miR-30 system, the endogenously expressed miR-30 was used and, in this cell line, miR-30 has been processed completely. Thus, the addition of enoxacin had no effect.

[2] = test system: shRNA against Luciferase mRNA; assay: GL-3 luciferase reporter in cells expressing shRNA against luciferase; format: cell-based; details: FIG. 5
Excerpt: In this example, a luciferase reporter construct GL-3 was transfected into the cells expressing shRNA against Luciferase mRNA.

[3] = test system: Clone#3, 293-EGFP-siGFP cells; assay: plate-reader chemical library screen, GFP signal in Clone#3 cells; format: cell-based, human; details: 50 mM RNAi-E alone
Excerpt: Further, in some embodiments, additional screens using the same library can be performed to identify other modulators of the siRNA and the miRNA pathways. In some embodiments, instead of examining the GFP signal visually under a microscope, the GFP signal can be quantified using an automatic plate reader. In such embodiments, two additional rounds of screening can be performed. In the first round of screening, the clones can be treated with compounds from a library, e.g., The Spectrum Collection, alone and the GFP level can be quantified after a period of time, e.g., 48 hours. In the second round of screening, the clones can be treated with compounds from a library, e.g., The Spectrum Collection, in the presence of 50 μM RNAi-E, i.e., enoxacin. This assay enables compounds that can modulate the activity of RNAi-E to be identified.
as §1, §2, §3

In the case of `c1ccc(CNC2CC(NCc3ccccn3)CC(NCc3ccccn3)C2)nc1` (centres unmarked) [Tachpyridine, tachpyridine], the anti-proliferative activity (tumor cell models) is given as “anti-proliferative activity”, the ferritin synthesis (bladder cancer cells) is given as “inhibit” and the “proliferation of bladder cancer cells in culture” value (bladder cancer cells) is given as “inhibit”.
In the case of `O=C(N/N=C/c1c(O)ccc2ccccc12)c1ccncc1` [compound 311, 2-hydroxy-1-naphthylaldehyde isonicotinoyl hydrazone], the anti-proliferative activity (tumor cell models) is listed as “anti-proliferative activity; also recorded: anti-proliferation activity” and the “RNAi-enhancing activity relative to Enoxacin” value (RNAi-293-EGFP/RFP cells) is listed as “more effective than Enoxacin”.
For `CCn1cc(C(=O)O)c(=O)c2cc(F)c(N3CCNCC3)nc21` [enoxacin], the “suppression of the translation of Lin28 by miR-125a” value (miR-125a; Lin28 construct, FIG. 8) was “further enhanced this suppression”, the “effect on Lin28-Del” value (miR-125a; construct without the target sequence of miR-125a) was “no effect” and the “siRNA-mediated mRNA degradation and gene knock-down” value [1] was “enhance siRNA-mediated mRNA degradation and gene knock-down”. The “EGFP, 293-EGFP cells RNAi-E alone” value (EGFP, 293-EGFP cells) was 177574932 and 1.78E+08 and 229622488 and 212666320 and 2.13E+08 and 138649048, the “miRNA-mediated translational suppression of Luc-T30 reporter” value (from here on “miRNA-mediated translational suppression”) (miR-30a-3p) was “no effect” and the “knock-down efficiency of shRNA against luciferase mRNA” value [2] was “increased the knock-down efficiency”. The “Clone#3, 293-EGFP-siGFP cells GFP signal intensity with RNAi-E” value [3] was 20289248 and 16615771 and 18695953 and 20015152.
In the case of “siRNA-c: control siRNA duplex, SEQ ID NO:3 (UGGUAGCAGUCAUGGCACATT; chemistry not given here)”, the “miRNA-mediated translational suppression” value (miR-30a-3p) is reported as “no effect”.
For “siRNA-p: siRNA duplex against miR-30a precursor, SEQ ID NO:2 (UGGAAGCUGUGAAGCCACATT; chemistry not given here)”, the “miRNA-mediated translational suppression” value (miR-30a-3p) was “reversed the translational suppression”.
